Laboratory results from patent publication US20250325547A1, “ANTI-SARS-COV-2 DRUG” (KAGOSHIMA UNIVERSITY, priority 2021, published 2025).
pEC50: −log10 of the molar value. Where two headings read alike, the source gives them in different places.

Legend:
SARS-CoV-2 (WK-521) = assay: microbe, parasite or virus in culture; type: cell-based
in vitro [1] = details: African green monkey
SARS-CoV-2 [2] = assay: Anti-SARS-CoV-2 RNA assay in VeroE6/TMPRSS2 cells; type: cell-based; details: Table 5, VeroE6/TMPRSS2 (RNA)
SARS-CoV-2 [3] = assay: Anti-SARS-CoV-2 RNA assay in Vero cells; type: cell-based; details: Table 5, Vero (RNA)
[4] = test system: SARS-CoV-2 (WK-521 strain); details: for pEC50: HEK293T/ACE2 (RNA), WK-521, MOI 0.1, 3 days
in vitro [5] = details: human
[6] = test system: SARS-CoV-2 (WK-521 strain); assay: microbe, parasite or virus in culture; details: Severe acute respiratory syndrome coronavirus 2, HEK-293T, 72 h
[7] = Severe acute respiratory syndrome coronavirus 2, 72 h, read-out: EC50 (50% effective concentration, inhibits cell death induced by SARS-CoV-2 infection by 50%), VeroE6/TMPRSS2 cells, SARS-CoV-2 WK-521, MOI 0.01, 3 days, Tables 1-4
[8] = read-out: EC50 (50% effective concentration, inhibits cell death induced by SARS-CoV-2 infection by 50%), VeroE6/TMPRSS2 cells, SARS-CoV-2 WK-521, MOI 0.01, 3 days, Tables 1-4
[9] = read-out: CC50 (50% toxicity concentration, reduces the number of viable cells in non-infected cells by 50%), non-infected VeroE6/TMPRSS2 cells, 3 days, Tables 1-4
[10] = read-out: EC50 (50% effective concentration, inhibits cell death induced by SARS-CoV-2 infection by 50%)
[11] = Table 5, HEK293T/ACE2, lower row
[12] = Severe acute respiratory syndrome coronavirus 2

Compound | pEC50 (SARS-CoV-2 (WK-521); [7]) | CC50 at 3 days (in vitro [1]) | also measured
C[C@@H]1CN(Cc2cc(Nc3ncnc4ccccc34)cc(Cl)c2O)[C@@H](C)CN1C (racemic) [Compound 33] | 4.26 | > 100 µM | –
CCN(CC)Cc1cc(Nc2ncnc3ccccc23)cc(Br)c1O [Compound 3] | 4.62 | > 100 µM | –
CCN(CC)Cc1cc(Nc2ncnc3ccccc23)cc(I)c1O [Compound 4] | 4.77 | > 100 µM | –
CCN(CC)Cc1cc(Nc2ncnc3cc(OC)c(OC)cc23)cc(I)c1O [Compound 5] | 4.50 | > 100 µM | –
CCN(CC)Cc1cc(Nc2nc(N(C)C)nc3ccccc23)cc(I)c1O [Compound 6] | 4.89 | 49.9 µM | –
CCN(CC)Cc1cc(Nc2nc(N(C)C)nc3ccccc23)cc(Cl)c1O [Compound 7] | 5.14 | 49.2 µM | –
CCN(C)Cc1cc(Nc2ncnc3ccccc23)cc(I)c1O [Compound 8] | – | – | pEC50 (SARS-CoV-2 (WK-521); [8]): 4.24; CC50 (VeroE6/TMPRSS2 cells; [9]): > 100 µM
CN(Cc1ccccc1)Cc1cc(Nc2ncnc3ccccc23)cc(I)c1O [Compound 9] | – | – | pEC50 (SARS-CoV-2 (WK-521); [8]): 5.10; CC50 (VeroE6/TMPRSS2 cells; [9]): 38.1 µM
CN1CCN(Cc2cc(Nc3ncnc4ccccc34)cc(I)c2O)CC1 [Compound 10] | – | – | pEC50 (SARS-CoV-2 (WK-521); [8]): 4.81; CC50 (VeroE6/TMPRSS2 cells; [9]): > 100 µM
CCN(Cc1cc(Nc2ncnc3ccccc23)cc(Cl)c1O)C(C)C [Compound 11] | – | – | pEC50 (SARS-CoV-2 (WK-521); [10]): 5.12; pEC50 (SARS-CoV-2 [2]): 5.72; pEC50 (SARS-CoV-2 [3]): 5.26; CC50 (VeroE6/TMPRSS2 cells; Table 5, VeroE6/TMPRSS2 (CPE)): > 100 µM; CC50 (VeroE6/TMPRSS2 cells; [9]): > 100 µM; pEC50 [4]: 6.92; CC50 (HEK293T/ACE2 cells; [11]): 85.4 µM
CCNCc1cc(Nc2ncnc3ccccc23)cc(I)c1O [Compound 13] | 4.35 | > 100 µM | –
CC(C)N(Cc1cc(Nc2ncnc3ccccc23)cc(Cl)c1O)C(C)C [Compound 15] | – | – | pEC50 (SARS-CoV-2 (WK-521); [10]): 5.48; pEC50 (SARS-CoV-2 [2]): 5.72; pEC50 (SARS-CoV-2 [3]): 5.77; CC50 (VeroE6/TMPRSS2 cells; Table 5, VeroE6/TMPRSS2 (CPE)): > 100 µM; CC50 (VeroE6/TMPRSS2 cells; [9]): > 100 µM; selectivity coefficient (CC50/EC50) [4]: > 833; pEC50 [4]: 6.92; CC50 (HEK293T/ACE2 cells; [11]): > 100 µM; CC50 (HEK293T/ACE2 cells; read-out: 50% toxicity concentration (CC50), HEK293T/ACE2 cells, text b80): > 100 µM
CC(C)N(Cc1cc(Nc2ncnc3ccccc23)cc(I)c1O)C(C)C [Compound 16] | – | – | pEC50 (SARS-CoV-2 (WK-521); [8]): 4.35; CC50 (VeroE6/TMPRSS2 cells; [9]): > 100 µM
CCN(Cc1cc(Nc2ncnc3ccccc23)cc(Cl)c1O)C1CCCCC1 [Compound 19] | – | > 100 µM | pEC50 (SARS-CoV-2 (WK-521); Severe acute respiratory syndrome coronavirus 2, Table 5, VeroE6/TMPRSS2 (CPE), read-out: EC50): 5.49; pEC50 (SARS-CoV-2 [2]; [12]): 5.54; pEC50 (SARS-CoV-2 [3]; [12]): 5.54; CC50 (VeroE6/TMPRSS2 cells; African green monkey, 3 days): > 100 µM; CC50 at 3 days (in vitro [5]): 36.1 µM; pEC50 [6]: 6.85
CCN(Cc1cc(Nc2ncnc3ccccc23)cc(Cl)c1O)C(C)(C)C [Compound 20] | 5.41 | > 100 µM | –
CCCN(Cc1cc(Nc2ncnc3ccccc23)cc(Cl)c1O)C(C)C [Compound 21] | 4.93 | > 100 µM | –
CC(C)N(Cc1cc(Nc2ncnc3ccccc23)cc(Cl)c1O)C(C)(C)C [Compound 22] | 4.97 | > 100 µM | –
CCCN(CCC)Cc1cc(Nc2ncnc3ccccc23)cc(Cl)c1O [Compound 23] | 4.82 | > 100 µM | –
CC1CC(C)CN(Cc2cc(Nc3ncnc4ccccc34)cc(Cl)c2O)C1 (stereo not drawn) [Compound 24] | 5.68 | > 100 µM | –
CC(C)N(Cc1cc(Nc2ncnc3cc(F)ccc23)cc(Cl)c1O)C(C)C [Compound 25] | 5.60 | > 100 µM | –
CCN(Cc1cc(Nc2ncnc3ccccc23)ccc1O)c1ccc(Cl)cc1 [Compound 26] | 4.93 | > 100 µM | –
CC(C)N(Cc1cc(Nc2ncnc3ccccc23)ccc1O)c1ccc(Cl)cc1 [Compound 27] | 4.86 | > 100 µM | –
CCN(Cc1cc(Nc2ncnc3ccccc23)cc(Cl)c1O)c1ccc(Cl)cc1 [Compound 28] | 5.00 | > 100 µM | –
CC(C)N(Cc1ccncc1)Cc1cc(Nc2ncnc3ccccc23)cc(Cl)c1O [Compound 29] | 4.97 | > 100 µM | –
CCN(Cc1cc(Nc2ncnc3ccccc23)cc(Cl)c1O)c1ccc(F)c(Cl)c1 [Compound 30] | 4.97 | > 100 µM | –
C[C@H]1C[C@H](C)CN(Cc2cc(Nc3ncnc4ccccc34)cc(Cl)c2O)C1 [Compound 31] | 4.71 | 37.5 µM | –
CCN(Cc1cc(Nc2ncnc3ccccc23)cc(Cl)c1O)CC(C)(C)C [Compound 32] | 4.70 | 60.2 µM | –
CC(C)N(Cc1cc(Nc2ncnc3ccccc23)cc(Cl)c1O[C@H]1O[C@@H](C)[C@@H](O)[C@@H](O)[C@@H]1O)C(C)C [Compound 34] | 4.22 | > 100 µM | –
CC(C)(C)[C@H](NC(=O)C(F)(F)F)C(=O)N1C[C@H]2[C@@H]([C@H]1C(=O)N[C@H](C#N)C[C@@H]1CCNC1=O)C2(C)C [Nirmatrelvir, reference compound] | – | – | pEC50 (SARS-CoV-2 (WK-521); Severe acute respiratory syndrome coronavirus 2, VeroE6/TMPRSS2, 72 h, read-out: EC50 (50% effective concentration, inhibits cell death induced by SARS-CoV-2 infection by 50%)): 5.08; CC50 (in vitro [1]): > 100 µM
